From US20220142995A1, “DUAL ATM AND DNA-PK INHIBITORS FOR USE IN ANTI-TUMOR THERAPY” (XRAD Therapeutics, Inc., priority 2019, published 2022)
Where “and” joins values, the source holds several entries; their conditions need not be identical. Equal entries are not always repeated. Structures can show the parent of a compound that is named as a salt.

Columns and labels:
hERG = target: T1, hERG (Homo sapiens, UniProt Q12809); assay: In-vitro hERG inhibition assay (manual patch clamp, hERG-T-REx HEK 293 cells); assay type: cell-based
T1 construct: host or cells: T-REx HEK293
T1 sequence (Q12809 whole entry): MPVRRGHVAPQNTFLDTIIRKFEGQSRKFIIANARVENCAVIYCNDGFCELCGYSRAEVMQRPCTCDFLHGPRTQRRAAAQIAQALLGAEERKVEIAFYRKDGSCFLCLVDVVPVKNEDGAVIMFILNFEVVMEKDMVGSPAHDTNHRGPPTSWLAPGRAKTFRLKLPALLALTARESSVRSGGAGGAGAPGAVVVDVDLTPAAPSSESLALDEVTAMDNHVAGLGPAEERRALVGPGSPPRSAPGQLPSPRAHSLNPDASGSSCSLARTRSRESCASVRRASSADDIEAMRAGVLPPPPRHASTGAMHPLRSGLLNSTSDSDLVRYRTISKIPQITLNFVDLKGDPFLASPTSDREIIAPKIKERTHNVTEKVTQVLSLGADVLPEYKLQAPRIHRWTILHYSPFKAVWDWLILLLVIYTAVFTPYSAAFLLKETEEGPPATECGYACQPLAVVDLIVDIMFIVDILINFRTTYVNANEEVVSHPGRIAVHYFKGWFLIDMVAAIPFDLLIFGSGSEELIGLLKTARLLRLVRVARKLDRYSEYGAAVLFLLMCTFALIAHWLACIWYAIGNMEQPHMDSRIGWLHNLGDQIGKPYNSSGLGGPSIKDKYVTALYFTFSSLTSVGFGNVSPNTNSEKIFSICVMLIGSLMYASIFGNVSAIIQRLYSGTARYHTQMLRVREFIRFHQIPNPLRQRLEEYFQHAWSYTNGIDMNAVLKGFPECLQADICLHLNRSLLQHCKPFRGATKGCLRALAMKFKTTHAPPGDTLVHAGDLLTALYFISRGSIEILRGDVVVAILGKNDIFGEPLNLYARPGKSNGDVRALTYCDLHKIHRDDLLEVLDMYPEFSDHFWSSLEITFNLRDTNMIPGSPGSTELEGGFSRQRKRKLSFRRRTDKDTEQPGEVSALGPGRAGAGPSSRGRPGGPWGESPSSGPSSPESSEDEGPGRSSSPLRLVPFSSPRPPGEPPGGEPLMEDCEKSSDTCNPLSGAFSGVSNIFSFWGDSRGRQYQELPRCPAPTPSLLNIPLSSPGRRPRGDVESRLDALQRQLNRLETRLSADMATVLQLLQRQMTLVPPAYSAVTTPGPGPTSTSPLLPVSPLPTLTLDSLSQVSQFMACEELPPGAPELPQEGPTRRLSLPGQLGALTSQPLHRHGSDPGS
Procedure: In-Vitro hERG Inhibition Assay:
The hERG-T-REx™ HEK 293 cells (Invitrogen, K1236) were generated by transfecting the hERG coding sequence in the Tet-regulated expression vector pT-Rex-DEST30 into cells expressing the Tet-repressor (T-Rex™ HEK293), thereby producing cells that can be induced to express high level of hERG channels. The cells were cultured in a medium containing of 85% DMEM, 10% dialyzed FBS, 0.1 mM NEAA, 25 mM HEPES, 100 U/mL Penicillin-Streptomycin, 5 μg/mL Blasticidin, and 400 μg/mL Geneticin. The cells were split using TrypLE™ Express (Gibco, 12604) about three times a week and maintained between ˜40% to ˜80% confluence. Before the assay, the cells were induced with doxycycline (Sigma, D9891) at 1 μg/mL for 48 hours. On the experiment day, the induced cells were resuspended and plated onto the coverslips at 5×10^5 cells/per 6 cm cell culture dish prior to use. The hERG channel-mediated current was acquired by manual patch clamp recording systems equipped with amplifiers (HEKA, EPC10 and Molecular Devices, multiclamp 700B) and the inverted phase contrast microscope (Olympus, IX51/71/73). Glass pipettes were prepared by micropipette puller (Sutter, P97 and Narishige, PC-10) and qualified by the pipette resistance in the range of […]. The internal pipette solution was 140 mM KCl, 2 mM MgCl2, 10 mM EGTA, 5 mM MgATP, and 10 mM HEPES (pH adjusted to 7.35 with KOH), and the external buffer was 132 mM NaCl, 4 mM KCl, 3 mM CaCl2), 0.5 mM MgCl2, 11.1 mM glucose, and 10 mM HEPES (pH adjusted to 7.35 with NaOH). The whole-cell configuration was maintained with access resistance continuously monitored (<15 M[…]). The hERG current was elicited by depolarizing membrane to +30 mV for 4.8 sec, and the voltage was set back to −50 mV for 5.2 sec to remove the inactivation and measure the deactivating tail current. The maximum amount of tail current size was used to determine hERG current amplitude. To evaluate the hERG inhibition, the blank vehicle and test articles were perfused to cells under whole-cell recording configuration through the liquid perfusion system (ALA, VM8 gravity-flow delivery system). For dose response assay, test article was applied to the cells accumulatively from low to high concentrations. A positive control (Dofetilide) was used in the experiments to ensure the performance of the cells and operations as major part of method validation. The percentage hERG current inhibition was fitted against dose concentrations to build the dose-response curve and determine IC50.

DNA-PK = target: T2, DNA-PK (Homo sapiens, UniProt P78527); assay: DNA-PK enzyme-linked immunosorbent assay; assay type: biochemical; conditions: ATP 20 μM, GST-p53 substrate
T2 construct: purchased Invitrogen PR9107A
Procedure: DNA-PK Enzyme-Linked Immunosorbent Assay:
On day one, a 96-well plate (ThermoFisher, Cat #: 442404) was coated with GST-p53 (1-101) peptide (purified by Pharmaron, BCS department) by diluting 3 μg of GST-p53 in each well with 0.1 M Na2CO3/NaHCO3 (pH 9.6). The plate was incubated overnight at 4° C. On the second day, the coating buffer was removed, and the plate was washed twice with PBST (1×PBS containing 0.1% Tween-20). The DNA-PK enzyme solution (Invitrogen, #PR9107A; the final DNA-PK concentration: 0.1 μg/mL) was then added. The compounds were serially diluted to the final maximal concentration of 100 nM (3 fold series dilution, a total of 10 doses), and an ATP solution (the final ATP concentration: 20 μM) was added to the plate. Incubate the plate at 25° C. for 1 hour. The plate was washed three times with PBST (1×PBS containing 0.1% Tween-20) and blocked with a solution of PBST and 1% BSA at 4° C. overnight. The third day, the plate was washed four times with PBST (1×PBS containing 0.1% Tween-20). Anti-phospho-p53 primary antibody (cell signaling Technology, #9286, Phospho-p53 (Ser15) (16G8) Mouse mAb) (1/1000) was added to each well. The plate was sealed, incubated 1 h at 37° C., and washed four times with PBST (1×PBS containing 0.1% Tween-20). An HRP-linked secondary antibody (Cell signaling Technology, #7076, Anti-mouse IgG, HRP-linked Antibody) (1/1000) (100 μL) was added to each well. The plate was sealed with tape, incubated 30 min at 37° C., and washed four times with PBST (1×PBS containing 0.1% Tween-20). At this time, 100 μL of TMB (Cell signaling Technology, #7004) substrate were added to each well. The plate was sealed with tape and incubated the plate 10 min at 37° C. Stop solution (Cell signaling Technology, #7002) (100 μL) was added to each well, and the plate was subjected to the absorption detection at 450 nm.

SMILES | IC50 (hERG; tail current) | IC50 (DNA-PK) | IC50 (hERG; human, hERG-T-REx HEK 293 cells expressing hERG, pH 7.35, tail current)
CC[C@H]1C[C@@]2(C1)C(=O)N(C)c1cnc3cc(F)c(-c4cnc(OCCNC(C)C)c(NS(C)(=O)=O)c4)cc3c12 [Compound 566, trans-N-(5-(3-Ethyl-7′-fluoro-3′-methyl-2′-oxo-2′,3′-dihydrospiro[cyclobutane-1,1′-pyrrolo[2,3-c]quinolin]-8′-yl)-2-(2-(isopropylamino)ethoxy)pyridin-3-yl)methanesulfonamide] | 2100 nM | 1.03 nM | –
CC(C)NCCOc1ncc(-c2cc3c(cc2F)ncc2c3[C@]3(C[C@@H](OCc4ccccc4)C3)C(=O)N2C)cc1NS(C)(=O)=O [Compound 567, trans-N-(5-(3-(Benzyloxy)-7′-fluoro-3′-methyl-2′-oxo-2′,3′-dihydrospiro[cyclobutane-1,1′-pyrrolo[2,3-c]quinolin]-8′-yl)-2-(2-(isopropylamino)ethoxy)pyridin-3-yl)methanesulfonamide] | 5500 nM | 2.7 nM | –
CC(C)NCCOc1ncc(-c2cc3c4c(cnc3cc2F)N(C)C(=O)C42CCC2)cc1NS(=O)(=O)C(C)C [Compound 568, N-(5-(7′-Fluoro-3′-methyl-2′-oxo-2′,3′-dihydrospiro[cyclobutane-1,1′-pyrrolo[2,3-c]quinolin]-8′-yl)-2-(2-(isopropylamino)ethoxy)pyridin-3-yl)propane-2-sulfonamide] | 14000 nM | 0.79 nM | –
CC(C)NCCOc1ncc(-c2cc3c4c(cnc3cc2F)N(C)C(=O)C42CCC2)cc1NS(C)(=O)=O [Compound 569, N-(5-(7′-Fluoro-3′-methyl-2′-oxo-2′,3′-dihydrospiro[cyclobutane-1,1′-pyrrolo[2,3-c]quinolin]-8′-yl)-2-(2-(isopropylamino)ethoxy)pyridin-3-yl)methanesulfonamide] | – | 0.63 nM | > 30000 nM
CCS(=O)(=O)Nc1cc(-c2cc3c4c(cnc3cc2F)N(C)C(=O)C42CCC2)cnc1OCCNC(C)C [Compound 570, N-(5-(7′-Fluoro-3′-methyl-2′-oxo-2′,3′-dihydrospiro[cyclobutane-1,1′-pyrrolo[2,3-c]quinolin]-8′-yl)-2-(2-(isopropylamino)ethoxy)pyridin-3-yl)ethanesulfonamide] | 10500 nM | 0.63 nM | –
CC(C)NCCOc1ncc(-c2cc3c4c(cnc3cc2F)N(C)C(=O)C42CN(C(C)C)C2)cc1NS(C)(=O)=O [Compound 571, N-(5-(7′-Fluoro-1-isopropyl-3′-methyl-2′-oxo-2′,3′-dihydrospiro[azetidine-3,1′-pyrrolo[2,3-c]quinolin]-8′-yl)-2-(2-(isopropylamino)ethoxy)pyridin-3-yl)methanesulfonamide] | 5600 nM | 0.67 nM and 0.94 nM | –
CC(C)NCCOc1ncc(-c2cc3c(cc2F)ncc2c3[C@]3(C[C@H](OCc4ccccc4)C3)C(=O)N2C)cc1NS(C)(=O)=O [Compound 572, cis-N-(5-(3-(Benzyloxy)-7′-fluoro-3′-methyl-2′-oxo-2′,3′-dihydrospiro[cyclobutane-1,1′-pyrrolo[2,3-c]quinolin]-8′-yl)-2-(2-(isopropylamino)ethoxy)pyridin-3-yl)methanesulfonamide] | 7500 nM | 0.32 nM | –
CC[C@H]1C[C@]2(C1)C(=O)N(C)c1cnc3cc(F)c(-c4cnc(OCCNC(C)C)c(NS(C)(=O)=O)c4)cc3c12 [Compound 573, cis-N-(5-(3-Ethyl-7′-fluoro-3′-methyl-2′-oxo-2′,3′-dihydrospiro[cyclobutane-1,1′-pyrrolo[2,3-c]quinolin]-8′-yl)-2-(2-(isopropylamino)ethoxy)pyridin-3-yl)methanesulfonamide] | 3000 nM | 0.3 nM | –
CN1C(=O)C2(CCC2)c2c1cnc1ccc(-c3cnc(N4CC(N(C)C)C4)c(NS(C)(=O)=O)c3)cc21 [Compound 574, N-(2-(3-(Dimethylamino)azetidin-1-yl)-5-(3′-methyl-2′-oxo-2′,3′-dihydrospiro[cyclobutane-1,1′-pyrrolo[2,3-c]quinolin]-8′-yl)pyridin-3-yl)methanesulfonamide hydrochloride] | > 30000 nM | 1.03 nM | –
